Laboratory results taken from patent US8518952B2, “6 substituted 2-heterocyclylamino pyrazine compounds as CHK-1 inhibitors” (Pfizer Inc., priority 2008, dated 2013).
Where two headings read alike, the source gives them in different places.

How the values were obtained:
HeLa cells = test: Histone H3 (Ser10) phosphorylation ELISA, abrogation of camptothecin-induced G2 arrest (CHK-1 cellular assay); type: cell-based; details: HeLa cells, camptothecin 8 hrs, then compound with nocodozole 16 hours, read-out: EC50
Protocol: The Histone H3 phosphorylation ELISA assay detects cells entering mitosis and represents the primary in vitro cell-based assay used to measure the cellular potency of compounds in abrogating the G2 check point induced by DNA damage in HeLa cells or MiaPaCa cells. The candidate substances were assayed for potency in their ability to inhibit camptothecin-induced G2 arrest, as measured by an increase in Histone H3 phosphorylation on Ser10, a marker of entry into mitosis.
Tissue culture plates were seeded with HeLa cells or MiaPaCa Cells and allowed to attach overnight. The cells were then treated with camptothecin to induce DNA damage for 8 hrs. Candidate substances or diluent were then added in the presence of nocodozole for 16 hours. […] The fresh whole cell lysates were then thawed and added to the ELISA plate with shaking for 3 hours. Between all subsequent steps plates were washed 4 times with PBST. Biotinylated phospho Histone H3 (ser10) detection antibody was added for 1 hour, followed by addition of horseradish peroxidase-linked streptavidin secondary antibody for 1 hour. Color development of the antibody was performed with addition of TMB substrate and incubation for 2 minutes on a plate shaker. […] EC50 values were calculated by sigmoid curve fitting using a four-parameter analysis.
(§1) Under the “Ki” column, data entries in the format of “%” are percent inhibition data where no Ki data is available. Data entry under the “EC50” column with an * are data obtained using Mia Paca-2 cells rather than HeLa cells. Data is not available where noted as n/a.

CHK1 (kinase domain) = target: T1, CHK1 (kinase domain) (Homo sapiens, UniProt O14757); test: CHK1 Ki determination, spectrophotometric coupled (pyruvate kinase/lactate dehydrogenase) assay; type: biochemical; details: CHK-1 kinase domain; for Ki: 150 uM ATP, 125 uM Syntide 2; for percent inhibition (where no Ki data is available): inhibitor concentration not given
T1 construct: a solution containing 1 nM of CHK1 (kinase domain)
T1 sequence (O14757 9-265 limits assumed): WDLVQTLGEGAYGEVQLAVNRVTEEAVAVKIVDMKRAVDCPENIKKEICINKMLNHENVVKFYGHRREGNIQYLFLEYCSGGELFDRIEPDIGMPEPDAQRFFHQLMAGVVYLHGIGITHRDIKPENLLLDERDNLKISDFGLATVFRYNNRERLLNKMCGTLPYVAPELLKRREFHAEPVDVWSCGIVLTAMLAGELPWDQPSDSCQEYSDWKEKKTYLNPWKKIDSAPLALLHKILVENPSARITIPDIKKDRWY
Protocol: After 15 min pre-incubation, the enzymatic reaction was initiated by the simultaneous addition of Syntide 2 peptide (125 uM, final concentration) and ATP (150 uM, final concentration). The kinase-catalyzed production of ADP from ATP that accompanied phosphoryl transfer to the substrate Syntide 2 was coupled to the oxidation of NADH through the activities of pyruvate kinase and lactate dehydrogenase. NADH conversion to NAD^+ was monitored by the decrease in absorbance at 340 nm (ε=6.22 cm^−1 mM^−1) using a microplate reader from Molecular Devices Spectormax Plus (Sunnyvale, Calif.) or BMG LABTECH Inc (Offenburg, Germany).
The inhibition of CHK1 was analyzed by fitting the data to the following equation to determine Kiapp:
[formula] where [E]o and [I]o are the active enzyme and inhibitor concentration, respectively; Ki is the inhibition binding constant and Km the Michaelis-Menten constant for ATP; Vi and Vo are the rates of substrate oxidation in the presence of and in the absence of inhibitor, respectively. EC50 Determination (Cellular Assay)
as §1

Row | SMILES | EC50 (HeLa cells; Homo sapiens, HeLa) [nM] | Ki (CHK1 (kinase domain)) [nM] | percent inhibition (where no Ki data is available) (CHK1 (kinase domain)) [%^] | EC50 (HeLa cells) [nM]
1 | CC(C)(C)CCOc1ccn2c(-c3cncc(N[C@@H]4CCCNC4)n3)cnc2c1 [Example 148, 6-[7-(3,3-dimethylbutoxy)imidazo[1,2-a]pyridin-3-yl]-N-[(3R)-piperidin-3-yl]pyrazin-2-amine] | ≥ 10000 |  | 104 | 
2 | C[C@H]1NCCC[C@H]1Nc1cncc(-c2cnc3ccccn23)n1 [Example 138, 6-imidazo[1,2-a]pyridin-3-yl-N-[(2R,3R)-2-methylpiperidin-3-yl]pyrazin-2-amine] |  |  |  | 188
3 | CC(C)OCCOc1ccn2c(-c3cncc(N[C@@H]4CCNC4)n3)cnc2c1 [Example 213, 6-{7-[2-(propan-2-yloxy)ethoxy]imidazo[1,2-a]pyridin-3-yl}-N-[(3R)-pyrrolidin-3-yl]pyrazin-2-amine] | ≥ 10000 | 3.58 |  | 
4 | CC[C@@H]1CNC[C@@H]1Nc1cncc(-c2cnc3ccccn23)n1 [Example 196, N-[(3R,4R)-4-ethylpyrrolidin-3-yl]-6-(imidazo[1,2-a]pyridin-3-yl)pyrazin-2-amine] | 16.8 | 32 |  | 
5 | Cc1cn2c(-c3cncc(N[C@@H]4CCCN[C@@H]4C)n3)cnc2s1 [Example 96, 6-(2-methylimidazo[2,1-b][1,3]thiazol-5-yl)-N-[(2R,3R)-2-methylpiperidin-3-yl]pyrazin-2-amine] | 24.3 | 2.7 |  | 
6 | CCc1cn2c(-c3cncc(N[C@@H]4CC[C@@H](C)NC4)n3)cnc2s1 [Example 106, 6-(2-ethylimidazo[2,1-b][1,3]thiazol-5-yl)-N-[(3R,6R)-6-methylpiperidin-3-yl]pyrazin-2-amine] | 271 | 21.8 |  | 
7 | COC[C@@H]1C[C@@H](Nc2cncc(-c3cnc4ccc(Cl)cn34)n2)CN1 [Example 246, 6-(6-chloroimidazo[1,2-a]pyridin-3-yl)-N-[(3R,5S)-5-(methoxymethyl)pyrrolidin-3-yl]pyrazin-2-amine] | 229 | 35.3 |  | 
8 | C[C@H]1CC[C@@H](Nc2cncc(-c3cnc4ccc(F)cn34)n2)CN1 [Example 93, 6-(6-fluoroimidazo[1,2-a]pyridin-3-yl)-N-[(3R,6S)-6-methylpiperidin-3-yl]pyrazin-2-amine] | 3330 | 89 |  | 
9 | C[C@@H]1CC[C@@H](Nc2cncc(-n3cnc4cc(OCC5(C)COC5)ccc43)n2)CN1 [Example 9, 6-{5-[(3-Methyloxetan-3-yl)methoxy]-1H-benzimidazol-1-yl}-N-[(3R,6R)-6-methylpiperidin-3-yl]pyrazin-2-amine] | ≥ 10000 | 131 |  | 
10 | CCc1cn2c(-c3cncc(N[C@@H]4CC[C@H](C)NC4)n3)cnc2s1 [Example 103, 6-(2-ethylimidazo[2,1-b][1,3]thiazol-5-yl)-N-[(3R,6S)-6-methylpiperidin-3-yl]pyrazin-2-amine] | 69.6 | 26.5 |  | 
11 | CC1(Nc2cncc(-c3cnc4ccccn34)n2)CCNC1 (centres unmarked) [Example 99, 6-imidazo[1,2-a]pyridin-3-yl-N-(3-methylpyrrolidin-3-yl)pyrazin-2-amine] | ≥ 10000 | 28.4 |  | 
12 | Cc1cn2c(-c3cncc(N[C@@H]4C[C@@H]5CN[C@H]4C5)n3)cnc2s1 [Example 85, (1S,4R,6R)-2-Aza-bicyclo[2.2.1]hept-6-yl-[6-(2-methyl-imidazo[2,1-b]thiazol-5-yl)-pyrazin-2-yl]-amine] |  |  |  | 795
13 | Cc1cn2c(-c3cncc(N[C@@H]4C[C@@H]5CN[C@H]4C5)n3)cnc2s1 [Example 125, (1S,4R,6R)-N-[6-(2-methylimidazo[2,1-b][1,3]thiazol-5-yl)pyrazin-2-yl]-2-azabicyclo[2.2.1]heptan-6-amine] |  |  |  | 35

Continued, values first:

Row | EC50 (HeLa cells; Homo sapiens, HeLa) [nM] | Ki (CHK1 (kinase domain)) [nM] | percent inhibition (where no Ki data is available) (CHK1 (kinase domain)) [%^] | EC50 (HeLa cells) [nM] | SMILES
14 | 1060 | 11 |  |  | CCC(COC)Oc1ccn2c(-c3cncc(N[C@@H]4CCCNC4)n3)cnc2c1 (stereo partly drawn) [Example 122, 6-{7-[1-(methoxymethyl)propoxy]imidazo[1,2-a]pyridin-3-yl}-N-[(3R)-piperidin-3-yl]pyrazin-2-amine]
15 | 3560 | 37.1 |  |  | FC[C@@H]1C[C@@H](Nc2cncc(-c3cnc4cc(C(F)(F)F)ccn34)n2)CN1 [Example 78, N-[(3R,5S)-5-(fluoromethyl)pyrrolidin-3-yl]-6-[7-(trifluoromethyl)imidazo[1,2-a]pyridin-3-yl]pyrazin-2-amine]
16 | 40.9 | 3.88 |  |  | CCO[C@H]1CCNC[C@@H]1Nc1cncc(-c2cnc3ccccn23)n1 [Example 35, N-[(3S,4S)-4-ethoxypiperidin-3-yl]-6-(imidazo[1,2-a]pyridin-3-yl)pyrazin-2-amine]
17 | 126 | 11.2 |  |  | CCc1ccn2c(-c3cncc(N[C@@H]4CCNC4)n3)cnc2c1 [Example 56, 6-(7-Ethylimidazo[1,2-a]pyridin-3-yl)-N-[(3R)-pyrrolidin-3-yl]pyrazin-2-amine]
18 | 66.4 |  | 109 |  | CC(C)c1cn2c(-c3cncc(N[C@H]4CNC[C@H]4CF)n3)cnc2s1 [Example 184, N-[(3R,4R)-4-(fluoromethyl)pyrrolidin-3-yl]-6-[2-(propan-2-yl)imidazo[2,1-b][1,3]thiazol-5-yl]pyrazin-2-amine]
19 | 294 |  | 29.1 |  | C[C@@H]1NCCC[C@@H]1Nc1cncc(-c2cnc3sccn23)n1 [Example 179, 6-(imidazo[2,1-b][1,3]thiazol-5-yl)-N-[(2S,3S)-2-methylpiperidin-3-yl]pyrazin-2-amine]
20 | ≥ 10000 | 101 |  |  | C[C@@H]1NCCC[C@H]1Nc1cncc(-c2cnc3cnccn23)n1 [Example 167, 6-(imidazo[1,2-a]pyrazin-3-yl)-N-[(2S,3R)-2-methylpiperidin-3-yl]pyrazin-2-amine]
21 | 30.3 | 2.39 |  |  | COc1ccc2c(c1)ncn2-c1cncc(N[C@@H]2CCCNC2)n1 [Example 224, 6-(5-methoxy-1H-benzimidazol-1-yl)-N-[(3R)-piperidin-3-yl]pyrazin-2-amine]
22 | ≥ 10000 | 36.4 |  |  | C[C@@H]1NCCC[C@H]1Nc1cncc(-c2cnc3cc(Cl)ccn23)n1 [Example 104, 6-(7-chloroimidazo[1,2-a]pyridin-3-yl)-N-[(2S,3R)-2-methylpiperidin-3-yl]pyrazin-2-amine]
23 |  | 8.62 |  | 151 | Cc1cn2c(-c3cncc(N[C@@H]4CCCN[C@H]4C)n3)cnc2s1 [Example 97, 6-(2-methylimidazo[2,1-b][1,3]thiazol-5-yl)-N-[(2S,3R)-2-methylpiperidin-3-yl]pyrazin-2-amine]
24 | 35.8 | 6.78 |  |  | CC(C)Oc1ccc2c(c1)ncn2-c1cncc(N[C@@H]2CCCNC2)n1 [Example 215, N-[(3R)-piperidin-3-yl]-6-[5-(propan-2-yloxy)-1H-benzimidazol-1-yl]pyrazin-2-amine]
25 | 344 | 12.7 |  |  | F[C@H]1CNC[C@@H]1Nc1cncc(-c2cnn3ccccc23)n1 [Example 66, N-[(3S,4S)-4-fluoropyrrolidin-3-yl]-6-(pyrazolo[1,5-a]pyridin-3-yl)pyrazin-2-amine]
26 | 1110 | 5.27 |  |  | CC(Oc1ccn2c(-c3cncc(N[C@@H]4CCCNC4)n3)cnc2c1)C(F)(F)F (stereo partly drawn) [Example 118, N-[(3R)-piperidin-3-yl]-6-[7-(2,2,2-trifluoro-1-methylethoxy)imidazo[1,2-a]pyridin-3-yl]pyrazin-2-amine]
27 | ≥ 10000 | 261 |  |  | FC(F)[C@@H]1C[C@@H](Nc2cncc(-c3cnc4cc(C(F)(F)F)ccn34)n2)CN1 [Example 89, N-[(3R,5S)-5-(difluoromethyl)pyrrolidin-3-yl]-6-[7-(trifluoromethyl)imidazo[1,2-a]pyridin-3-yl]pyrazin-2-amine]
28 | 5070 | 4.7 |  |  | C[C@@H]1CNC[C@@H]1Nc1cncc(-c2cnc3cc(C(N)=O)ccn23)n1 [Example 191, 3-(6-{[(3R,4R)-4-methylpyrrolidin-3-yl]amino}pyrazin-2-yl)imidazo[1,2-a]pyridine-7-carboxamide]
